Assay results as given in US20190292215A1, “COMPOUNDS, COMPOSITIONS, AND METHODS FOR THE TREATMENT OF DISEASE” (Sperovie Biosciences, Inc., priority 2016, published 2019).

Test system: IFN-β
Test: Semi-quantitative RT-PCR of IFN-β gene expression in THP1-Dual / KO STING cells
Format: cell-based
Conditions: THP1-WT, treated 5 or 22 hrs; Cmd 1 alone (no lipo)
Description: RNA samples were prepared using Qiagen RNeasy kit and the expression of IFNβ, IRF7 and housekeeper gene β-actin was determined using semi-quantitative reverse transcription (RT)-PCR (started with equal amounts of RNA). PCR products were subjected to 1% agarose gel electrophoresis.
Lipofectamine 2000 also activates IFN-β gene, but cells were treated with Cmd 1 alone (no lipo). DMSO is the negative control.

In the case of `Nc1nc2c(ncn2[C@@H]2O[C@@H]3COP(=O)(O)O[C@H]4[C@@H](O)[C@H](n5cnc6c(N)ncnc65)O[C@@H]4COP(=O)(O)O[C@@H]2[C@@H]3O)c(=O)[nH]1` [2′3′-cGAMP], the “Time to induce IFN-β gene expression” value is reported as no more than 5 h.
